Minimal effective concentration data for 2 compounds are collected here from publication PMC7377239, “Cardiovascular Effects of Polychlorinated Biphenyls and Their Major Metabolites” (Environmental Health Perspectives, 2020).

The test system of experiment [1] is iCell endothelial cells (human iPSC-derived ECs). Put plainly: Tube formation (tubulogenesis) assay in iCell endothelial cells, 18 h. It is filed as cell-based. To be noted: Homo sapiens, Endothelial cell, endothelial cells (endo), 18 hr. An outline of the steps: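 iCell ECs (passages 1–5) seeded 7,500 cells/well on reduced-growth-factor Geltrex in starvation medium, exposed overnight at 37°C to compounds in triplicate concentration–response (0.5% DMSO vehicle). Calcein AM staining, 4× imaging, angiogenesis image analysis; readouts normalized to vehicle, four-parameter logistic fit, POD at 1 SD of vehicle; 100 μM assigned NOAEL if no response.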

For another experiment, the system named is HUVECs. Put plainly: Tube formation (tubulogenesis) assay in HUVECs, 18 h. It is filed as cell-based, human. To be noted: Homo sapiens, HUVEC, 18 h, HUVEC. An outline of the steps:
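HUVECs (passage 1–5) seeded on reduced-growth-factor basement membrane and exposed to compounds overnight at 37°C, 5% CO2, in 2× maintenance medium with 12.5 ng/mL VEGF; 0.5% DMSO vehicle. Calcein AM-stained tube networks imaged and analysed; vehicle-normalized readouts fit to four-parameter logistic, POD set at one SD of vehicle means.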

Where [2] appears, read: tube formation mtl, read-out: POD endo.mtl.18hr.
Setting [3] is: tube formation tlps, read-out: POD endo.tlps.18hr.
[4] abbreviates: tube formation tta, read-out: POD endo.tta.18hr.
Setting [5] is: tube formation ttl, read-out: POD endo.ttl.18hr.
Setting [6] is: tube formation mtl, read-out: POD huvec.mtl.18hr.
Where [7] appears, read: tube formation tlps, read-out: POD huvec.tlps.18hr.
The mark [8] stands for this setting: tube formation tta, read-out: POD huvec.tta.18hr.
Where [9] appears, read: tube formation ttl, read-out: POD huvec.ttl.18hr.

Structures are written as SMILES. Like-named read-outs stand apart in the source and are kept apart here.

On to `Clc1ccc(-c2cc(Cl)c(Cl)c(Cl)c2)cc1Cl` [PCB 126, 3,3′,4,4′,5-pentachlorobiphenyl], for which the minimal effective concentration came out at 28.1 µM in experiment [1] (setting [2]); 4.68 µM in experiment [1] (setting [3]); 25.7 µM in experiment [1] (setting [4]); 38.9 µM in experiment [1] (setting [5]); 100 µM in the experiment with HUVECs (setting [6]); 100 µM in the experiment on HUVECs (setting [7]). Further, the minimal effective concentration in the experiment on HUVECs (setting [8]) and in the experiment on HUVECs (setting [9]) was 100 µM each time.
For the compound `Clc1cc(Cl)c(-c2cc(Cl)c(Cl)cc2Cl)cc1Cl` [PCB 153, 2,2′,4,4′,5,5′-hexachlorobiphenyl], the minimal effective concentration was determined as 0.007 µM in experiment [1] (setting [2]); 1.93 µM in experiment [1] (setting [3]); 3.83 µM in experiment [1] (setting [4]); 0.58 µM in experiment [1] (setting [5]); 19.8 µM in the experiment with HUVECs (setting [6]); 61.8 µM in the experiment with HUVECs (setting [7]). Moreover, the figures for the minimal effective concentration with HUVECs (setting [8]) and with HUVECs (setting [9]) were 8.87 µM and 0.13 µM, respectively.
